# Source: patent US8729048B2, “Methods and materials for assessing responsiveness to PARP inhibitors and platinating agents” (Mayo Foundation for Medical Education and Research, priority 2011, dated 2014)
# What was measured:
# Assay type in all cases: cell-based
# [1] = tested on: ATM-deficient GM16666 fibroblasts; test: Clonogenic assay, GM16666; conditions: GM16666 cells versus ATM-reconstituted GM16667, 48 hours
# Protocol: (§1) FIG. 6. […] (A) BRCA1-deficient HCC1937 and BRCA1-reconstituted HCC1937/BRCA1 cells were continuously exposed to ABT-888 in the presence or absence of 125 nM DNA-PKi and assayed for clonogenic survival. Inset, Western blots of cell lysates from HCC1937 and HCC1937/BRCA1. (B) Western blots of M059J and reconstituted M059J+DNA-PKcs lines showing the restoration of DNA-PK expression and the shRNA-mediated knockdown of BRCA1. (C) Clonogenic survival of shRNA transfected M059J/M059J+DNA-PKcs lines treated with ABT-888 for 72 hours. (D) Clonogenic survival of ATM-deficient GM16666 or ATM-reconstituted GM16667 fibroblasts. Cells were exposed to ABT-888 for 48 hours in the presence or absence of 250 nM DNA-PKi, washed, and allowed to form colonies. Inset, Western blots of lysates from GM16666 and GM16667 fibroblasts. […] Results are representative of 3 independent experiments.
# (§2) Colony formation assays were performed on siRNA-transfected PEO1 and PEO4 cells 48 hours after the second transfection. Cells were trypsinized and plated at 750 cells/plate in triplicate 60-mm dishes containing medium A, allowed to grow 10-14 days, and stained with Coomassie Brilliant Blue. Colonies containing ≧50 cells were scored manually. […]
# [2] = tested on: HPRT locus in BRCA2-mutant CAPAN1 cells; test: HPRT mutagenesis assay; conditions: 250 nM DNA-PKi, 72 hours
# Protocol: FIG. 4. PARP inhibitor-induced chromosomal derangement and genomic instability is dependent on DNA-PK activity. (A) Representative images of metaphase spreads from cells treated with diluent (0.2% DMSO), 500 nM DNA-PKi, 2.5 μM ABT-888, or both ABT-888 and DNA-PKi for 72 hours. Chromosomal breaks are marked with arrowheads and radial structures are marked with asterisks. (B) Quantitation of data from (A) showing average radial chromosomes per cell (n=100 for each data point pooled from two separate experiments, error bars represent SEM). † indicate values that are zero. (C) Calculated mutagenesis frequency in BRCA2-mutant CAPAN1 cells after control treatment or exposure to ABT-888 with or without 250 nM DNA-PKi. Each bar represents the mean±SEM of 5-8 plates.
# HPRT mutagenesis was performed as described elsewhere (Hashimoto et al., Clin. Cancer Res., 1:369-376 (1995)). […] Each sample group was trypsinized, replated at 10^6 cells/100-mm dish in medium E supplemented with 15 μM 6-TG, cultured until colonies were visible (14-21 days), and analyzed manually for colony formation. […] Mutagenesis frequencies were calculated by dividing the number of colonies on 6-TG-treated plates by the total number of possible colonies (10^6 cells×plating efficiency).
# [3] = tested on: BRCA1-deficient HCC1937 cells; test: Clonogenic assay, HCC1937; conditions: continuous exposure, 125 nM DNA-PKi
# Protocol: as §1, §2
compound,measurement,setting,value
C[C@]1(c2nc3c(C(N)=O)cccc3[nH]2)CCCN1 [ABT-888],clonogenic sensitivity,[1],heightened sensitivity
CCN1CCN(CC(=O)Nc2ccc(-c3cccc4c(=O)cc(N5CCOCC5)oc34)c3sc4ccccc4c23)CC1 [AZ 12594248],effect of co-administration on PARP inhibitor-induced HPRT mutation frequency,[2],markedly reduced the mutation frequency
same,effect on ABT-888 sensitivity (clonogenic survival),[3],diminished ABT-888 sensitivity
